{
  "source": "patent US8883852B2",
  "about": "“Radioprotective agents” (University of Pittburgh—Of the Commonwealth System of …, priority 2008, dated 2014)",
  "key": {"32D cl 3 cells": {"system": "32D cl 3 cells", "test": "In vitro irradiation survival curves (clonogenic survival assay)", "type": "cell-based, mouse", "protocol": "The cells were irradiated with doses ranging from 0 to 8 Gy. The 32D cl 3 cells were plated in methycellulose, incubated at 37° C. for one week at which time colonies of greater than 50 cells were counted (Epperly, M. W. et al. Mitochondrial localization of superoxide dismutase is required for decreasing radiation induced cell damage. Radiat. Res. 160, 568-578 (2003) and Epperly, M. W. et al. Ethyl pyruvate, a potentially effective total body irradiation damage mitigator. Radiat. Res. 168, 552-559 (2007)). The data were analyzed using linear quadratic and single-hit, multi-target models (Id.)."}, "C57BL/6NHsd female mice": {"system": "C57BL/6NHsd female mice", "test": "In vivo irradiation survival curves, total body irradiation", "design": "species or system mouse", "text": "Other groups of mice were control mice, or vehicle only irradiated mice.\nThe mice were followed for the development of irradiation induced damage to the hematopoietic system which occurs within the first 30 days after irradiation (FIG. 7)."}, "[1]": {"test": "Hypoglycemia at the dose of glyburide used in the present study", "type": "in vivo"}, "KM101 cells": {"system": "KM101 cells", "test": "Irradiation-induced cell death, cell-based assay", "design": "species or system human", "details": "γ-irradiated (10 or 25 Gy), data not shown", "protocol": "(§1) Cells were cultured in fresh medium prior to irradiation and were γ-irradiated with a Shepherd model 143-45A irradiator (J. L. Shepherd & Associates, CA) at a dose rate of 4 Gy/min. Cells were incubated with drugs at the indicated concentrations 1 h before or 30 min after irradiation. Cell viability was determined using phosphatidylserine (PS) externalization/propidium iodide (PI) permeabilization assay or LDH Assay after 72 h post-irradiation incubation.\n(§2) Cells were exposed to γ-irradiation at different doses (10 or 25 Gy) based on their radiosensitivity. […] The mechanisms responsible for the differences in glyburide response are not known but are worthy of further investigation."}, "HeLa cells": {"system": "HeLa cells", "test": "Irradiation-induced cell death, cell-based assay", "design": "species or system human", "details": "γ-irradiated (10 or 25 Gy), data not shown", "protocol": "as §1, §2"}, "H1299 cells": {"system": "H1299 cells", "test": "Irradiation-induced cell death, cell-based assay", "design": "species or system human", "details": "γ-irradiated (10 or 25 Gy), data not shown", "protocol": "as §1, §2"}, "human primary astrocytes": {"system": "human primary astrocytes", "test": "Irradiation-induced cell death, LDH release assay", "type": "cell-based", "details": "50 and 100 μM, 1-h prior to irradiation (25 Gy)", "protocol": "as §1\nFor human primary astrocytes, cell viability was determined by assaying the medium from each sample for LDH activity according to the manufacturer's instructions (Sigma). The enzyme activity from the culture medium and floating cells were used as an index of cell death. To determine total LDH activity, the adherent cells were lysed in 0.5% Triton X-100 and assayed for LDH activity, this cell-associated LDH activity was then added to the LDH activity in the removed culture medium. The amount of LDH present in the medium was calculated as a percentage of the total, which was used to calculate the percent cell death in the corresponding samples.\nas §2"}, "T98G cells": {"system": "T98G cells", "test": "Irradiation-induced cell death, PS externalization/PI permeabilization by flow cytometry", "type": "cell-based, human", "details": "for irradiation induced cell death (PS externalization/PI permeability): drug 1-h prior to 25 Gy γ-irradiation, glyburide 12.5-200 μM, 72 h post-irradiation", "protocol": "as §1\n(§3) After 72 h post-irradiation incubation, attached cells were harvested by trypsinization and pooled with detached cells from supernatant. Harvested cells were then stained with annexin-V-FITC and PI for 5 min in the dark prior to flow cytometry analysis (FACscan, Becton-Dickinson, Rutherford, N.J.). Cell debris was gated out by forward and side scatter under the same conditions, and a minimum of 10,000 gated cells were acquired. Percentages of annexin-V-positive cells were calculated by combining annexin V+/PI− (early apoptotic) and annexin V+/PI+ (late apoptotic or necrotic) cells.\nIn the present study, we selected 10 chemicals that targeted 13 candidate siRNA gene transcripts for further study (Table 3). The radioprotective effects of the compounds were tested in T98G cells, which were initially used in the siRNA screen. […] The other nine chemicals lacked any obvious protective effect on γ-irradiation induced cell death under the current experimental conditions (FIG. 4A)."}, "BEAS-2B cells": {"system": "BEAS-2B cells", "test": "Irradiation-induced cell death, flow cytometry", "type": "cell-based, human", "details": "1-h prior to irradiation (10 Gy)", "protocol": "as §1, §3, §2"}, "U-87 MG cells": {"system": "U-87 MG cells", "test": "Irradiation-induced cell death, flow cytometry", "type": "cell-based, human", "details": "1-h prior to irradiation (10 Gy)", "protocol": "as §1, §3, §2"}},
  "note": "Entries after “also recorded” stand apart in the source; their conditions may differ.",
  "data": [
    {"molecule": "COc1ccc(Cl)cc1C(=O)NCCc1ccc(S(=O)(=O)NC(=O)NC2CCCCC2)cc1", "note": "[glyburide, 5-chloro-N-[2-[4-(cyclohexylcarbamoylsulfamoyl)phenyl]ethyl]-2-methoxy-benzamide]", "values": [
      {"measurement": "n or shoulder on the irradiation survival curve", "setting": "32D cl 3 cells; 10 μM in methylcellulose following irradiation (0-8 Gy)", "result": "2.5±0.9"},
      {"measurement": "survival of 32D cl 3 cells", "setting": "32D cl 3 cells; 10 μM, 1-h before irradiation (0-8 Gy)", "result": "significantly increased the survival"},
      {"measurement": "survival compared to irradiated controls", "setting": "C57BL/6NHsd female mice; 5 mg/kg i.p. 10 min after 9.5 Gy total body irradiation", "result": "no significant increase in survival; also recorded: not protected from irradiation"},
      {"measurement": "survival compared to irradiated controls and vehicle only", "setting": "C57BL/6NHsd female mice; 5 mg/kg i.p. 10 min before 9.5 Gy total body irradiation, P=0.04", "result": "significantly increased survival; also recorded: protected as seen by an increase in survival; also recorded: increased the survival rate"},
      {"measurement": "mice survived", "setting": "C57BL/6NHsd female mice; 5 mg/kg intraperitoneal 10 min before 9.5 Gy total body irradiation", "result": 60, "unit": "%"},
      {"measurement": "mice survived", "setting": "C57BL/6NHsd female mice; glyburide injected 10-min after 9.5 Gy total body irradiation", "result": 44, "unit": "%"},
      {"measurement": "hypoglycemia", "setting": "[1]", "result": "did not cause hypoglycemia"},
      {"measurement": "radioprotection", "setting": "KM101 cells", "result": "no protective effect; also recorded: only limited protection"},
      {"measurement": "radioprotection", "setting": "HeLa cells", "result": "no protective effect; also recorded: only limited protection"},
      {"measurement": "radioprotection", "setting": "H1299 cells", "result": "no protective effect; also recorded: only limited protection"},
      {"measurement": "radioprotection", "setting": "human primary astrocytes", "result": "effective radioprotection"},
      {"measurement": "radioprotection", "setting": "human primary astrocytes; listed as Glyburide", "result": "effectively relieved irradiation induced cell death"},
      {"measurement": "protection over a range of irradiation exposure", "setting": "T98G cells; 200 μM, 1-h prior to 5-25 Gy", "result": "effectively protected cells"},
      {"measurement": "irradiation induced apoptosis, post-irradiation treatment", "setting": "T98G cells; added 30-min after γ-irradiation (25 Gy)", "result": "protected cells from irradiation induced apoptosis to a similar extent"},
      {"measurement": "irradiation induced cell death (PS externalization/PI permeability)", "setting": "T98G cells", "result": "attenuated irradiation induced cell death in a concentration-dependent manner; also recorded: demonstrated radioprotective effect"},
      {"measurement": "irradiation induced cell death (PS externalization/PI permeability)", "setting": "T98G cells; listed as Glyburide", "result": "effectively relieved irradiation induced cell death"},
      {"measurement": "radioprotection", "setting": "BEAS-2B cells", "result": "effective radioprotection"},
      {"measurement": "radioprotection", "setting": "BEAS-2B cells; listed as Glyburide", "result": "effectively relieved irradiation induced cell death"},
      {"measurement": "radioprotection", "setting": "U-87 MG cells", "result": "effective radioprotection"},
      {"measurement": "radioprotection", "setting": "U-87 MG cells; listed as Glyburide", "result": "effectively relieved irradiation induced cell death"}
    ]}
  ]
}
